This note sets out measurements from a melting point compilation (Tetko et al.; mined from patent text by program, amines drawn as free bases though some values may be those of a salt).

In general, melting point refers to the temperature of the solid-liquid transition. `CC(=O)Oc1ccc(C(=NNc2cccc([N+](=O)[O-])c2)c2ccc(OC(C)=O)cc2)cc1`: the melting point lay within 88 to 90 °C.

Take `CC1(NCC(O)c2ccc3nnnn3c2)CC1` (centres undefined): the melting point is 72 to 73 °C. For `CC1(C)C=C(N2CCCCC2=O)c2cc(C#N)ccc2O1` the value was 162 to 163 °C; for `COc1cc(C(C)C)c(Oc2cnc(N)nc2N)cc1N1CCN(S(C)(=O)=O)CC1`, 115 to 117 °C; for `COc1cc2c(c3c1OC(C)(C)C3)C(c1cccc(N3CCN(C(=O)OC(C)(C)C)S3(=O)=O)c1)=NC(C)(C)C2`, 157 to 159 °C. On to `COCc1ccc(Cn2cc(-c3ccc(OC)cc3)ccc2=O)cc1`, for which the melting point came to 72 °C. With `C/C=C/C(=O)Nc1ccc2ncnc(Nc3cccc(Br)c3)c2c1`, the melting point is 153 to 160 °C. `O=C(c1ccccc1)N1CCC2(CC1)Cc1ccccc1C2=O`: the melting point fell in the range of 149 to 154 °C. For `COCc1cc(Cl)cc(C(=O)c2nc(OC)cc(OC)n2)c1[N+](=O)[O-]` the value was 130 to 131 °C; for `O=C1OC(OC(=O)c2cccnc2Nc2cccc(C(F)(F)F)c2)c2ccccc21` (centres undefined), 159 to 162 °C.

On to `CCOC(=O)C(=CNc1ncnn1C)C(=O)c1cc(F)c(Cl)nc1Cl`, for which the melting point was 102 to 103 °C. `O=C1C(=O)c2ccccc2C2=C1SCC1(CCN(Cc3ccccc3)CC1)O2` displayed a melting point of 170 to 172 °C. The figure for `CCOC(=O)c1cnc2ccc(C(F)(F)F)cc2c1O` is greater than 260 °C. As for `COc1cc(OCC(=O)O)c(C)cc1SCc1cccc(-c2cccc(OC(F)(F)F)c2)c1`, the melting point was 92 to 94 °C. In turn, `COC(=O)C(CCSC)NC(=O)c1ccc(CS(=O)(=O)c2cccnc2)cc1-c1ccccc1` (centres undefined) displayed a melting point of 152 to 154 °C. Consider `O=C(Nc1n[nH]c(=S)s1)NC(Cc1ccccc1)C(=O)NCc1ccc2c(c1)OCO2` (centres undefined), for which the melting point came out at 213 °C. The figure for `O=C(O)Cc1c(C(=O)c2cc(Cl)ccn2)[nH]c2cc(Cl)ccc12` is 233 to 234 °C; for `CCOC(=O)C(=O)NNC(=O)c1cc(C)cc(C)c1` it is 159 °C.

Compound `O=C(Nc1ccc(Oc2ccnc(NC3CCCCC3)n2)c2ccccc12)c1cc(F)cc(N2CCCCC2)c1` displayed a melting point of 118 to 120 °C.

In turn, `Cc1oc(-c2ccccc2)nc1COc1cccc(CN(O)C(N)=O)c1` yielded a melting point of 151 to 152 °C. For `Cc1[nH]cnc1CSCCNc1[nH]ccc1[N+](=O)[O-]` the value was 161 to 162 °C; for `Cc1csc(-c2ccc(C(=O)Nc3ccc4cc(CN5CCCC5)cnc4c3C)cc2)c1`, 224 to 225 °C; for `Oc1ccc2c(c1)SCCc1c-2n(CCCCCN2CCCC2)c2ccc(O)cc12`, 202 to 204 °C. For `CN1C(=O)C(C)(Cc2ccccc2)N(C)C(=O)C1C1NC(=O)c2cccc(F)c21` (centres undefined) the value was 183 to 185 °C; for `COC(=O)c1csc(-c2ccc(OC)cc2)n1`, 67 to 79 °C; for `Cc1nc2cc(C(=O)O)c(C(=O)O)cc2n1C`, 308 to 312 °C.

On to `O=c1oc2ccccc2s1`, for which the melting point fell in the range of 25.8 to 27 °C. `CC1Nc2ccccc2N(Cc2ccccc2)C(=O)C1Cc1ccccc1` (centres undefined) showed a melting point of 140 to 141 °C.

`Nc1sc2c(c1C(=O)c1ccc(-c3ccccc3)cc1)CCN(C(=O)OCc1ccccc1)C2` had a melting point of 83 to 85 °C. For `COC(=O)C1(c2cc(C#N)ccc2O)CCCC1` the value was 113 to 118 °C. With `Nc1nc2ccnc(-c3cccc(C=O)c3)n2n1`, the melting point fell in the range of 205 to 208 °C. In turn, `Nc1cccc(-c2ccc(OCCN3CC4C(N)C4C3)c3ccccc23)n1` (centres undefined) displayed a melting point of 140 to 155 °C. For `O=C(c1ccccc1)c1nsc2nc3ccccc3n12`, the melting point lay in the range of 190 to 191 °C. In turn, `CC(C)c1ccc(-n2nc(Cl)cc2-c2ccc(S(C)(=O)=O)cc2)cc1` showed a melting point of 146 to 148 °C.

`CCNC(=O)Oc1cccc(NC(=O)CC(C)=O)c1` had a melting point of 138 °C.

Compound `CS(=O)(=O)c1ccc(-c2cnn(-c3ccc(F)cc3)c(=O)c2COc2cccc(F)c2)cc1` had a melting point of 142 to 144 °C. For `CCCn1c(=O)c2[nH]c(-c3cc(C)n(CC(=O)Nc4ccc(C)cc4)n3)nc2n(CCC)c1=O` the value was greater than 300 °C; for `O=C(NC(Cc1ccccc1)c1ccccn1)c1ccccc1` (centres undefined), 153 to 154 °C; for `COCCOc1ccc(/C=C/C(=O)NS(=O)(=O)c2ccc(F)cc2)c(Oc2ncc(C(F)(F)F)cc2Cl)c1`, 183 to 184 °C. Turning to `CN1C(C)(C)CC2(CC1(C)C)NC(=O)N(CC(O)CN1C(=O)NC3(CC(C)(C)N(C)C(C)(C)C3)C1=O)C2=O`, the melting point fell in the range of 255 to 256 °C. `O=C(CCCC1CCCCC1)C1=C(O)CSC1=O` returned a melting point of 45 to 50 °C. For `Nc1nc2ccc(Oc3ccc(F)cc3)cc2s1`, the melting point is 126 to 128 °C. The figure for `Cc1ccc(NC(=S)NC(NC(=O)c2ccc(C)cc2)C(F)(F)F)cc1` (centres undefined) is 192 to 193 °C. In the case of `Cc1cc(NC2=NCCN2)n(C(C)C)n1`, the melting point lay in the range of 173 to 175 °C.

`COC1=NS(=O)(=O)N(C)C(Oc2ccc([N+](=O)[O-])cc2)=N1` displayed a melting point of 220 to 221 °C. The figure for `Cc1ccc(-c2ccc3c(c2)C=C(C(=O)O)CS3)cc1` is 244 °C; for `CC(=O)CCc1ccc(C(=O)c2ccc(F)cc2)cc1` it is 67 to 68 °C.

With `CCCCCC(O)C1C(=O)NC(C(=O)SCC(=O)OC)(C(O)C2C=CCCC2)C1(C)O` (centres undefined), the melting point is 75 °C.

As to `COc1ccc(C(=O)N2CCc3nnc(NN)cc3C2)cc1`, the melting point was 169 to 172 °C. Compound `COc1cc(N)c(Cl)cc1C(=O)CC(O)c1ccncc1` (centres undefined) had a melting point of 181 to 183 °C. `CCOC(=O)Cn1c(=O)n(Cc2ccc(Cl)cc2)c(=O)c2ccccc21` returned a melting point of 137 °C. Consider `C=CCNc1c([N+](=O)[O-])ccc(Oc2ccc(C#N)cc2)c1Cl`, for which the melting point lay in the range of 85 to 87 °C. The figure for `CCC(=O)NC1(c2ccccc2Cl)C(=O)N(Cc2ccc(C(=O)NC(C)(C)C)cc2OC)c2ccc(Cl)cc21` (centres undefined) is 249 °C.

Consider `CN(C)S(=O)(=O)c1ccc(F)cc1`, for which the melting point was in the range of 40 to 43 °C. The compound `COc1cc2c(c(O)c1C)COC(C)C2` (centres undefined) came in with a melting point of 143 to 145 °C. For `O=C(O)C1CCCN1S(=O)(=O)c1ccc(-c2ccccc2)cc1` (centres undefined) the value was 133 to 135 °C; for `O=C(COc1ccon1)NCCO[N+](=O)[O-]`, 67 to 69 °C; for `CC(C)(C)C(=O)NC1CCCNC(=O)C1` (centres undefined), 106 to 107 °C. For `CC(C)(C)C(O)C(Oc1ccccc1)n1ccnc1` (centres undefined) the value was 99 to 105 °C. For `Cc1ccc(C(=O)NCCCSc2ccncc2)s1` the value was 86 to 87 °C; for `C=CCc1cc(O)c(CC=C)c(C=NO)c1O`, 241 to 243 °C.

Take `CC(C)OC(=O)c1cc2c(cn1)[nH]c1cccc(Oc3ccc(Cl)cc3)c12`: the melting point lay within 273 to 274 °C. The figure for `O=C(N[C@@H](Cc1c[nH]c2ccccc12)C(=O)O)c1cccc(Cl)c1` is 160 to 161 °C; for `Cc1ccn2c(-c3ccnc(-c4ccc(N5CCOCC5)cc4)c3)c(-c3cccc(C)n3)nc2c1` it is 208 °C; for `CC(C)(C)OC(=O)Nc1ccc(-c2noc(COc3ccc(F)c(C(N)=O)c3F)n2)cc1` it is 165 to 166 °C. The figure for `CCCCNC(=O)OCC(=NNC(N)=S)c1ccccc1` is 103 to 116 °C. The figure for `CCOC(=O)c1cnc2n(c1=O)CCc1cc(OC)ccc1-2` is 158 to 160 °C; for `CC(=O)c1c(N)c(-c2ccccc2)n(C)c1C` it is 124 to 126 °C. `Cc1cc(CCCCc2cc(C)c(O)c(C(C)(C)C)c2)cc(C(C)(C)C)c1O` displayed a melting point of 106 to 107 °C.

As for `COc1ccc(C2=NN(C3CCSCC3)C(=O)[C@H]3CC=CC[C@@H]23)c2c1OC(C)(C)C2` (relative stereo), the melting point was in the range of 163 to 164 °C. For `Oc1ccc(Cl)cc1C(O)(c1ccccc1)C1CCCCC1` (centres undefined) the value was 170 °C; for `COc1ccc2cc(-c3ccc(OCC(O)CNC(C)C)c(OC)c3)n(C)c(=O)c2c1` (centres undefined), 144 to 146 °C. For `CS(=O)(=O)c1ccc(-c2ccc(Cl)n2-c2ccc(F)cc2)cc1` the value was 180 to 182 °C; for `CCCCCCCCCCCC(=O)Oc1ccc(-c2nc(-c3ccc(N(C)C)cc3)c(C)[nH]2)cc1OC`, 110 to 112 °C. As for `CCNC(=O)c1ccc(N2CCNCC2)c(Cl)c1`, the melting point is 117 to 119 °C. Consider `O=c1[nH]c2ccccc2c2c(=O)n(-c3ccccc3)[nH]c12`, for which the melting point is greater than 260 °C.

On to `CC(=O)N1CCc2cc(CC(C)Br)ccc21` (centres undefined), for which the melting point lay in the range of 124 to 126 °C. The compound `CC(C)C(=O)OCC(=O)C12OC(C3CCCCC3)OC1CC1C3CCC4=CC(=O)C=CC4(C)C3C(O)CC12C` (centres undefined) registered a melting point of 210 to 211 °C.

As for `Cc1c(NCCCCNCC(O)COc2ccccc2)n(C)c(=O)n(C)c1=O` (centres undefined), the melting point fell in the range of 148 to 150 °C.

On to `CNc1nc(C)c(-c2cn3ccc(C)cc3n2)s1`, for which the melting point was in the range of 220 to 221 °C. Regarding `CC1=C(C(=O)O)C(c2cccc([N+](=O)[O-])c2)C(C(=O)OCCNC(=O)c2cccnc2)=C(C)N1` (centres undefined), the melting point lay within 151 to 152 °C. For `CN(C)c1ccc(C(=O)C(F)(F)c2ccccc2)cc1` the value was 115 to 116 °C; for `CS(=O)(=O)C(=C1CN(C(c2ccccc2)c2ccccc2)C1)c1cc(Cl)ccc1Cl`, 202 °C. The figure for `CC(C)C(=O)NCC(C)(C)N` is 134 to 138 °C; for `CCCc1nc(N)nc(N)c1N1CCN(c2ccc(C(=O)N[C@@H](CCC(=O)OCC)C(=O)OCC)cc2)CC1` it is 175 to 180 °C; for `O=C(O)c1ncsc1S` it is 156 to 157 °C. In the case of `CS(=O)(=O)Oc1ccc2c(c1)C(=O)C(CC=O)C2` (racemic), the melting point is 85 to 87 °C. For `CCOc1nnc2c3ccc(Cl)cc3c(-c3ccccc3)nn12` the value was 226 to 228 °C; for `CCCc1c(OCc2c(CCCCc3cccnc3)ccc(C(N)=O)c2OCC)ccc(C(C)=O)c1O`, 107 to 109 °C.
